# Test results: PubChem BioAssay (NCI)
#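 The compound was tested at five concentrations on cells cultured in 96-well plates, with a 48-hour exposure period. At the GI50, growth is halved. TGI: concentration producing complete growth inhibition.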
# Columns and labels:
# Test in all cases: inhibition of tumour cell growth, NCI panel, 48 h
# [1] = tested on: UO-31 renal
# [2] = tested on: NCI-H522 lung
# [3] = tested on: ACHN renal
# [4] = tested on: NCI-H460 lung
# [5] = tested on: OVCAR-4 ovarian
# [6] = tested on: M14 melanoma
# [7] = tested on: HCT-15 colon
# [8] = tested on: SNB-19 CNS
# [9] = tested on: MCF7 breast
# [10] = tested on: MOLT-4 leukemia
# [11] = tested on: CCRF-CEM leukemia
# [12] = tested on: IGROV1 ovarian
# [13] = tested on: HCC-2998 colon
# [14] = tested on: EKVX NSCLC
# [15] = tested on: SR leukemia
# [16] = tested on: SF-539 CNS
# [17] = tested on: SK-OV-3 ovarian
# [18] = tested on: UACC-62 melanoma
# [19] = tested on: MALME-3M melanoma
# [20] = tested on: HOP-92 NSCLC
# [21] = tested on: A498 renal
# [22] = tested on: MDA-MB-435
# [23] = tested on: A549 NSCLC
# [24] = tested on: SK-MEL-28 melanoma
# [25] = tested on: NCI-H23 lung
# [26] = tested on: TK-10 renal
# [27] = tested on: HT29 colon
# [28] = tested on: SN12C renal
structure (smiles),measurement,setting,value
CO[C@H]1/C=C/C[C@H](C)[C@@H](C)S(=O)(=O)NC(=O)c2ccc3c(c2)N(C[C@@H]2CC[C@H]21)C[C@@]1(CCCc2cc(Cl)ccc21)CO3,GI50,[1],3.19 µM
same,TGI,[1],11.1 µM
same,GI50,[2],1.39 µM
same,TGI,[2],3.3 µM
same,GI50,[3],3.39 µM
same,TGI,[3],11.8 µM
same,GI50,[4],1.99 µM
same,TGI,[4],4.17 µM
same,GI50,[5],2.46 µM
same,TGI,[5],12.1 µM
same,GI50,[6],2.4 µM
same,TGI,[6],7.31 µM
same,GI50,[7],2.54 µM
same,TGI,[7],8.43 µM
same,GI50,[8],3.45 µM
same,TGI,[8],14.1 µM
same,GI50,[9],1.43 µM
same,TGI,[9],9.77 µM
same,GI50,[10],1.73 µM
same,TGI,[10],8.8 µM
same,GI50,[11],1.3 µM
same,TGI,[11],5.03 µM
same,GI50,[12],3.08 µM
same,TGI,[12],10.6 µM
same,GI50,[13],1.65 µM
same,TGI,[13],3.45 µM
same,GI50,[14],1.91 µM
same,TGI,[14],6.76 µM
same,GI50,[15],0.67 µM
same,TGI,[15],12.2 µM
same,GI50,[16],1.85 µM
same,TGI,[16],4.55 µM
same,GI50,[17],3.5 µM
same,TGI,[17],12.6 µM
same,GI50,[18],0.659 µM
same,TGI,[18],2.46 µM
same,GI50,[19],1.97 µM
same,TGI,[19],4.14 µM
same,GI50,[20],1.55 µM
same,TGI,[20],3.4 µM
same,GI50,[21],1.45 µM
same,TGI,[21],3.47 µM
same,GI50,[22],1.48 µM
same,TGI,[22],3.14 µM
same,GI50,[23],3.29 µM
same,TGI,[23],12.7 µM
same,GI50,[24],2.61 µM
same,TGI,[24],8.04 µM
same,GI50,[25],1.58 µM
same,TGI,[25],4.12 µM
same,GI50,[26],2.8 µM
same,TGI,[26],11.1 µM
same,GI50,[27],2.13 µM
same,TGI,[27],5.16 µM
same,GI50,[28],2.37 µM
same,TGI,[28],6.63 µM
